Active and inactive are the calls of the source. The calls are words filed in the database; no cut-off is given here.
What was measured:
[1] = test system: HSC-T6; test: Antiproliferative activity against rat HSC-T6 cells at 10 to 100 ug/ml after 24 to 48 hrs by BrdU incorporation assay; type: functional, cell-based
[2] = test system: HSC-T6; test: Induction of cell death in rat HSC-T6 cells assessed as decrease in cell viability after 48 hrs by MTT assay; type: functional, cell-based
[3] = Induction of apoptosis in rat HSC-T6 cells assessed as increase in caspase-3/7 activity at 10 to 100 ug/ml after 24 to 48 hrs; type: functional
[4] = Cytotoxicity against rat HSC-T6 cells assessed as decrease in LDH release; type: cell-based
[5] = Antifibrotic activity against rat HSC-T6 cells assessed as inhibition of proliferation after 48 hrs by BrdU incorporation assay; type: functional, cell-based; details: HSC-T6, 48 h
[6] = test system: HSC-T6; test: Decrease in collagen content in rat HSC-T6 cells at 10 to 100 uM after 48 hrs by sirius red-based colorimetric assay; type: functional, cell-based
[7] = test system: HSC-T6; test: Induction of cell death in rat HSC-T6 cells assessed as decrease in cell viability at 100 uM by MTT assay; type: functional, cell-based; details: TDE = time-dependent effect
[8] = Inhibition of rat HSC-T6 cell proliferation at 100 ug/ml after 48 hrs by BrdU incorporation assay; type: functional; details: HSC-T6, 48 h

**Q.** For `C=C(C)[C@@H]1CC[C@]2(CO)CC[C@]3(C)[C@H](CC[C@@H]4[C@@]5(C)C[C@@H](O)[C@H](OC(=O)/C=C/c6ccc(O)c(O)c6)C(C)(C)[C@@H]5CC[C@]43C)[C@@H]12`, which Activity [1] is on record?
**A.** Active

**Q.** What about the Activity [2] of the same compound?
**A.** Dose-dependent effect

**Q.** And the Activity [3]?
**A.** 150%

**Q.** And the Activity [4]?
**A.** Non-toxic

**Q.** And the IC50 [5]?
**A.** 23.9 µM

**Q.** And the Activity [6]?
**A.** Dose-dependent effect

**Q.** What about the Activity [7] of the same compound?
**A.** tde

**Q.** For `O=C(/C=C/CCc1ccc(O)c(O)c1)CCc1ccc(O)c(O)c1` [DEHYDROHIRSUTANONOL], which Activity [1] is on record?
**A.** Active

**Q.** And the Activity [2]?
**A.** Dose-dependent effect

**Q.** What about the Activity [3] of the same compound?
**A.** 150%

**Q.** What about the Activity [4] of the same compound?
**A.** Non-toxic

**Q.** What about the IC50 [5] of the same compound?
**A.** 14 µM

**Q.** What about the Activity [6] of the same compound?
**A.** Dose-dependent effect

**Q.** And the Activity [7]?
**A.** tde

**Q.** Which inhibition at 100 µg/mL [8] does the source give for `OC[C@@]1(O)CO[C@@H](OC[C@H]2O[C@@H](O[C@H](CCCCc3ccc(O)cc3)CCc3ccc(O)cc3)[C@H](O)[C@@H](O)[C@@H]2O)[C@@H]1O` here?
**A.** 22.7%

**Q.** What about the IC50 [5] of the same compound?
**A.** 39.1 µM

**Q.** With `O=C(O[C@@H]1Cc2c(O)cc(O)cc2O[C@@H]1c1cc(O)c(O)c(O)c1)c1cc(O)c(O)c(O)c1` [EPIGALOCATECHIN GALLATE] as the compound, how does the IC50 [5] read?
**A.** 9.9 µM
